# Paper PMC10746543, “Design principles for cyclin K molecular glue degraders” (Nature Chemical Biology, 2023)
# Values joined by “and” are separate entries in the source; they are usually repeats but may differ in a detail not shown here. Equal entries are not always repeated. Where two headings read alike, the source gives them in different places.
# Key:
# CDK12–cyclin K and DDB1 = target: T1, CDK12–cyclin K and DDB1 (Homo sapiens, UniProt Q16531+Q9NYV4, K965R); test: TR-FRET ternary complex formation assay (compound titration); type: binding; conditions: for TR-FRET signal at compound concentration 0.468 nM / TR-FRET signal at compound concentration 2.16 nM / TR-FRET signal at compound concentration 3.6 nM / TR-FRET signal at compound concentration 7.92001 nM / TR-FRET signal at compound concentration 15.84 nM / TR-FRET signal at compound concentration 30.96 nM / TR-FRET signal at compound concentration 62.6401 nM / TR-FRET signal at compound concentration 125.28 nM / TR-FRET signal at compound concentration 244.8 nM / TR-FRET signal at compound concentration 993.601 nM / TR-FRET signal at compound concentration 2001.6 nM: raw replicate titration data
# T1 construct: His6–CDK12 (a.a. 713–1,052); full-length or beta-propeller B domain deletion (ΔBPB: a.a. 396–705 deleted) constructs of His6–DDB1ΔBPB, StrepII–Avi–DDB1, or His6–Spy–DDB1; made in house; host or cells: Trichoplusia ni High Five insect cells (baculovirus)
# T1 sequence (Q9NYV4 713-1052 K965R): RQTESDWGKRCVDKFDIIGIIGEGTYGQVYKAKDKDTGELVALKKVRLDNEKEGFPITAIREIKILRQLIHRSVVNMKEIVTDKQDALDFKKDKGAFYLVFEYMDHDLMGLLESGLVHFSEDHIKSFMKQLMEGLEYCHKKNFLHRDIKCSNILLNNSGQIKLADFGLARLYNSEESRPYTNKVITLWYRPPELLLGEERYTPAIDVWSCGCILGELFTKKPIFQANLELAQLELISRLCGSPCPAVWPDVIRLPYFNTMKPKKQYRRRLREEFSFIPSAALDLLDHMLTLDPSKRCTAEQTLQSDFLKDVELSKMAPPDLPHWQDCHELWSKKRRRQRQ
# T1 sequence (O75909 1-267 partner): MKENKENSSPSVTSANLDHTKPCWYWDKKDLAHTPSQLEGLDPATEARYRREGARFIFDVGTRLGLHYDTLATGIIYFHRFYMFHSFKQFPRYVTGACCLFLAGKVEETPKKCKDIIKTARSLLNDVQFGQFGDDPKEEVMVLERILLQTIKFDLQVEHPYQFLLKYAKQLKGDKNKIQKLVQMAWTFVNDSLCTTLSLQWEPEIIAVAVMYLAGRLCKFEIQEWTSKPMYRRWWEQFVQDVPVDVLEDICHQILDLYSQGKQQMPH
# T1 sequence (Q16531 whole entry): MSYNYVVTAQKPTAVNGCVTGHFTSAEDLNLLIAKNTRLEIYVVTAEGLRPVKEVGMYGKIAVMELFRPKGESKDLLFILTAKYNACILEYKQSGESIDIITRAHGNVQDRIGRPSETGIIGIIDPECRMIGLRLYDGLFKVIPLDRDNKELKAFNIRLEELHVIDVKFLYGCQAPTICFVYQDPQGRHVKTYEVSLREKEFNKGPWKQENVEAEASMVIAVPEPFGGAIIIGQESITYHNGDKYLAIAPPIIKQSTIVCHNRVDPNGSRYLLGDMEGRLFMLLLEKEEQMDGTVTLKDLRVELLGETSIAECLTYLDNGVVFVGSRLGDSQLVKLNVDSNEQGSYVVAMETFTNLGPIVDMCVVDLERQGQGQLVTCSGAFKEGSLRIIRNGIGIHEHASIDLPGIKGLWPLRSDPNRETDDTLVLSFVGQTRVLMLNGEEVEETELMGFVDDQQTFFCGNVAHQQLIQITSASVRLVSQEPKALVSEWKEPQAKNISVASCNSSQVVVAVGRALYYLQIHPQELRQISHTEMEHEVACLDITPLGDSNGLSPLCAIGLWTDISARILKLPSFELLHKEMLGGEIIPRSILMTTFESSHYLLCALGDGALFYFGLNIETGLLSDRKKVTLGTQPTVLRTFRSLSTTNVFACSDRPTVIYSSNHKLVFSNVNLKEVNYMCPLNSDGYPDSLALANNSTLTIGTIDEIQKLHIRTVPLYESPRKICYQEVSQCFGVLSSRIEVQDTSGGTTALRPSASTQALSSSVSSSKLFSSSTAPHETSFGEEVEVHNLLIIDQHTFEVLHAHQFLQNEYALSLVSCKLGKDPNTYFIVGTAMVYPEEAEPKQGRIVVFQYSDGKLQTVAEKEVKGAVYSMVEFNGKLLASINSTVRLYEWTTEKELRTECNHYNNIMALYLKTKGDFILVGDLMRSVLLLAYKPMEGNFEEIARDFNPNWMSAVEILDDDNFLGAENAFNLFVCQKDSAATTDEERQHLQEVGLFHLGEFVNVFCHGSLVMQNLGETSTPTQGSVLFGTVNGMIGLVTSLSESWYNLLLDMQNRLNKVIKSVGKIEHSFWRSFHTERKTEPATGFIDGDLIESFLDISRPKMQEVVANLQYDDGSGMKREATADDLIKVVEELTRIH
# In short: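 TR-FRET ratio 520/490 nm; 70 μs delay before read to suppress background.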
# [1] = system: cyclin K–eGFP degradation reporter; test: Cyclin K reporter stability analysis (dual-color cyclin K–eGFP reporter); type: cell-based, human; conditions: source data sheet correlations; read-out: DC50
# In short: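 HEK293T–Cas9 cells carrying the cyclin K–eGFP reporter were seeded at 1 × 10^6 ml^−1 and exposed to drug or DMSO for 5 h. Flow cytometry gave geometric means of eGFP and mCherry in round, mCherry-positive cells. The eGFP/mCherry ratio was normalized to the mean of three DMSO controls.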
# HEK293T cells = test: Drug sensitivity assay (CellTiter-Glo viability) with or without MLN4924 pretreatment; type: cell-based, human; conditions: Supplementary Table 2; for EC50: Homo sapiens, HEK-293T, HEK293T viability, 72 h, compound alone, read-out: Cellular assays EC50; for Toxicity rescue: MLN4924-mediated cytotoxicity rescue, 10 µM used where n.d.
# In short: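 Luminescent ATP read-out (CellTiter-Glo) after 3 days of drug exposure, normalised to DMSO controls. Cells were HEK293T–Cas9, pretreated with 100 nM MLN4924 or DMSO for 2 h before drug dispensing.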
# CDK12–cyclin K = CDK12–cyclin K (Homo sapiens, UniProt Q9NYV4); test: Lanthascreen kinase binding assay, CDK12; conditions: for IC50: Supplementary Table 2, read-out: Lanthascreen IC50 [nM] CDK12; for Lanthascreen raw signal, sheet CDK12: series r1, duplicates
# Sequence of CDK12–cyclin K (Q9NYV4 713-1052): as the sequence (Q9NYV4 713-1052 K965R) above, with R253K counted along it
# Sequence of CDK12–cyclin K (O75909 1-267 partner limits assumed): as the sequence (O75909 1-267 partner) above
# Method: (§1) Lanthascreen experiments were performed using commercially available reagents (Thermo Fisher) and according to the manufacturer’s instructions.
# CDK9–cyclin T = target: T2, CDK9–cyclin T (Homo sapiens, UniProt P50750); test: Lanthascreen kinase binding assay, CDK9; conditions: for IC50: Supplementary Table 2, read-out: Lanthascreen IC50 [nM] CDK9; for Lanthascreen TR-FRET signal (raw ratio), sheet CDK9: first titration set (r1), duplicates
# T2 construct: purchased Thermo Fisher
# T2 sequence (P50750 whole entry): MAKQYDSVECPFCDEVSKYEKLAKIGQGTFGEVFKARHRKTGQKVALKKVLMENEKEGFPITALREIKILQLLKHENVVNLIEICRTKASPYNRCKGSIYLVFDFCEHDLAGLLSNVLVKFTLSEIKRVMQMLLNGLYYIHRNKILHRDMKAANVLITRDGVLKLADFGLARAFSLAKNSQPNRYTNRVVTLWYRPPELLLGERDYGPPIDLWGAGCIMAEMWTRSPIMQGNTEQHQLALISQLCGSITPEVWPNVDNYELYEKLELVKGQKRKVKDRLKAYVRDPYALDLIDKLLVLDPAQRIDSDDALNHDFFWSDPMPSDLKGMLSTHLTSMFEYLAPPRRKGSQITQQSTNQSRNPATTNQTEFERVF
# T2 sequence (O60563 whole entry partner): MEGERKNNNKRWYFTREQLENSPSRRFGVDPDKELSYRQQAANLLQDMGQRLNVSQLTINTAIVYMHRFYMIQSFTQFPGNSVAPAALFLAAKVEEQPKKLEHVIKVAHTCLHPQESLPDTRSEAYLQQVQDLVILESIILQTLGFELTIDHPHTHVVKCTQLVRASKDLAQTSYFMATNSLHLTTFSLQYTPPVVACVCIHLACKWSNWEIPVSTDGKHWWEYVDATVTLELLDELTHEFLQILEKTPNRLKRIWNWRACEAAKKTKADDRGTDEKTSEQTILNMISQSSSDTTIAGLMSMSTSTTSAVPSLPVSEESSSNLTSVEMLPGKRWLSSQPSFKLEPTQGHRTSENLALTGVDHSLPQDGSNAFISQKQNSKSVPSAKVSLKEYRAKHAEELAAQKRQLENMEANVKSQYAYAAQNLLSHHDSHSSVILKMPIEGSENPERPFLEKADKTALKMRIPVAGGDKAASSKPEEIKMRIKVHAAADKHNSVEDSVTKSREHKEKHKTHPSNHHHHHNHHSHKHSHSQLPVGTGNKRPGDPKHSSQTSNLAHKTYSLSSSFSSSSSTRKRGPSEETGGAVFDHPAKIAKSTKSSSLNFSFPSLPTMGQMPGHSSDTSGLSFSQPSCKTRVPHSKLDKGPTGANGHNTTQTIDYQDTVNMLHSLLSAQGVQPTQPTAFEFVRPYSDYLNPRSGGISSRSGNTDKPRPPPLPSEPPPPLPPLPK
# Method: as §1
# CDK2–cyclin A = target: T3, CDK2–cyclin A (Homo sapiens, UniProt P24941); test: Lanthascreen kinase binding assay, CDK2; conditions: for Lanthascreen signal, sheet CDK2: raw replicates, experiment r1-r11
# T3 construct: purchased Thermo Fisher
# Method: as §1
# [2] = in vitro complex formation, 50 nM CDK12–cyclin K, 100 nM DDB1, text and figures, read-out: TR-FRET EC50
# [3] = source data sheet correlations, read-out: TR-FRET EC50
# [4] = Supplementary Table 2, read-out: Lanthascreen IC50 [nM] CDK2
smiles,measurement,setting,value
Fc1ccc2[nH]c(CNc3nc(N4CCOCC4)nc4c(Br)cnn34)nc2c1F [DS72],TR-FRET signal at compound concentration 0.468 nM,CDK12–cyclin K and DDB1,0.3453 and 0.3314 and 0.2038 and 0.2054
same,TR-FRET signal at compound concentration 2.16 nM,CDK12–cyclin K and DDB1,0.4522 and 0.4261 and 0.3132 and 0.3307
same,TR-FRET signal at compound concentration 3.6 nM,CDK12–cyclin K and DDB1,0.6871 and 0.6344 and 0.5591 and 0.6106
same,TR-FRET signal at compound concentration 7.92001 nM,CDK12–cyclin K and DDB1,1.2161 and 1.061 and 1.142 and 1.169
same,TR-FRET signal at compound concentration 15.84 nM,CDK12–cyclin K and DDB1,2.149 and 1.974 and 2.1219 and 2.262
same,TR-FRET signal at compound concentration 30.96 nM,CDK12–cyclin K and DDB1,3.31 and 3.181 and 2.938 and 2.942
same,TR-FRET signal at compound concentration 62.6401 nM,CDK12–cyclin K and DDB1,3.363 and 3.323 and 3.061 and 3.125
same,TR-FRET signal at compound concentration 125.28 nM,CDK12–cyclin K and DDB1,3.473 and 3.376 and 3.04 and 3.123
same,TR-FRET signal at compound concentration 244.8 nM,CDK12–cyclin K and DDB1,3.475 and 3.275 and 3.121 and 3.153
same,TR-FRET signal at compound concentration 993.601 nM,CDK12–cyclin K and DDB1,3.459 and 3.133 and 3.073
same,TR-FRET signal at compound concentration 2001.6 nM,CDK12–cyclin K and DDB1,3.344 and 3.271 and 3.14 and 3.1113
same,EC50,CDK12–cyclin K and DDB1; [2],12 ± 1 nM
same,EC50,CDK12–cyclin K and DDB1; [3],12.2 nM
same,DC50,[1],6 nM
same,EC50,HEK293T cells,6 nM
same,Toxicity rescue,HEK293T cells,533%
same,IC50,CDK12–cyclin K,1 nM
same,"Lanthascreen raw signal, sheet CDK12",CDK12–cyclin K; compound 1.02544 nM,0.008081 and 0.009101
same,"Lanthascreen raw signal, sheet CDK12",CDK12–cyclin K; compound 3.15521 nM,0.008849 and 0.007319
same,"Lanthascreen raw signal, sheet CDK12",CDK12–cyclin K; compound 9.46563 nM,0.006356 and 0.00835
same,"Lanthascreen raw signal, sheet CDK12",CDK12–cyclin K; compound 31.5521 nM,0.005926 and 0.005481
same,"Lanthascreen raw signal, sheet CDK12",CDK12–cyclin K; compound 99.3891 nM,0.005678 and 0.004673
same,"Lanthascreen raw signal, sheet CDK12",CDK12–cyclin K; compound 315.521 nM,0.005163 and 0.006077
same,"Lanthascreen raw signal, sheet CDK12",CDK12–cyclin K; compound 3155.21 nM,0.003862 and 0.004893
same,"Lanthascreen raw signal, sheet CDK12",CDK12–cyclin K; compound 10002 nM,0.003963 and 0.004045
same,IC50,CDK9–cyclin T,104 nM
same,"Lanthascreen TR-FRET signal (raw ratio), sheet CDK9",CDK9–cyclin T; compound 1.02544 nM,0.0138 and 0.01522
same,"Lanthascreen TR-FRET signal (raw ratio), sheet CDK9",CDK9–cyclin T; compound 3.15521 nM,0.01223 and 0.01249
same,"Lanthascreen TR-FRET signal (raw ratio), sheet CDK9",CDK9–cyclin T; compound 9.46563 nM,0.0129 and 0.01178
same,"Lanthascreen TR-FRET signal (raw ratio), sheet CDK9",CDK9–cyclin T; compound 31.5521 nM,0.00952 and 0.01286
same,"Lanthascreen TR-FRET signal (raw ratio), sheet CDK9",CDK9–cyclin T; compound 99.3891 nM,0.008274 and 0.008068
same,"Lanthascreen TR-FRET signal (raw ratio), sheet CDK9",CDK9–cyclin T; compound 315.521 nM,0.006761 and 0.006072
same,"Lanthascreen TR-FRET signal (raw ratio), sheet CDK9",CDK9–cyclin T; compound 3155.21 nM,0.003594 and 0.002711
same,"Lanthascreen TR-FRET signal (raw ratio), sheet CDK9",CDK9–cyclin T; compound 10002 nM,0.003294 and 0.003353
same,"Lanthascreen signal, sheet CDK2",CDK2–cyclin A; Compound 1.02544 nM,0.009384 and 0.009817
same,"Lanthascreen signal, sheet CDK2",CDK2–cyclin A; Compound 3.15521 nM,0.009333 and 0.009829
same,"Lanthascreen signal, sheet CDK2",CDK2–cyclin A; Compound 9.46563 nM,0.009654 and 0.01088
same,"Lanthascreen signal, sheet CDK2",CDK2–cyclin A; Compound 31.5521 nM,0.008522 and 0.009526
same,"Lanthascreen signal, sheet CDK2",CDK2–cyclin A; Compound 99.3891 nM,0.01016 and 0.009968
same,"Lanthascreen signal, sheet CDK2",CDK2–cyclin A; Compound 315.521 nM,0.008698 and 0.009504
same,"Lanthascreen signal, sheet CDK2",CDK2–cyclin A; Compound 3155.21 nM,0.005132 and 0.004872
same,"Lanthascreen signal, sheet CDK2",CDK2–cyclin A; Compound 10002 nM,0.003933 and 0.00458
same,IC50,CDK2–cyclin A; [4],1060 nM
Cn1cc(-c2cnn3c(NCc4nc5cc(Cl)c(Cl)cc5[nH]4)nc(N4CCOCC4)nc23)cn1 [DS74],TR-FRET signal at compound concentration 0.468 nM,CDK12–cyclin K and DDB1,0.2798 and 0.3065 and 0.1782 and 0.1849
same,TR-FRET signal at compound concentration 2.16 nM,CDK12–cyclin K and DDB1,0.3614 and 0.3498 and 0.2211 and 0.2229
same,TR-FRET signal at compound concentration 3.6 nM,CDK12–cyclin K and DDB1,0.435 and 0.4393 and 0.2978 and 0.2973
same,TR-FRET signal at compound concentration 7.92001 nM,CDK12–cyclin K and DDB1,0.5995 and 0.6274 and 0.4373 and 0.4353
same,TR-FRET signal at compound concentration 15.84 nM,CDK12–cyclin K and DDB1,0.9577 and 0.9944 and 0.7392 and 0.7343
same,TR-FRET signal at compound concentration 30.96 nM,CDK12–cyclin K and DDB1,1.593 and 1.564 and 1.2847 and 1.436
same,TR-FRET signal at compound concentration 62.6401 nM,CDK12–cyclin K and DDB1,1.875 and 1.832 and 1.71 and 1.6908
same,TR-FRET signal at compound concentration 125.28 nM,CDK12–cyclin K and DDB1,1.954 and 1.862 and 1.734 and 1.741
same,TR-FRET signal at compound concentration 244.8 nM,CDK12–cyclin K and DDB1,2.043 and 1.982 and 1.799 and 1.754
same,TR-FRET signal at compound concentration 993.601 nM,CDK12–cyclin K and DDB1,2.0625 and 2.016 and 1.825 and 1.774
same,TR-FRET signal at compound concentration 2001.6 nM,CDK12–cyclin K and DDB1,1.983 and 1.981 and 1.797 and 1.763
same,EC50,CDK12–cyclin K and DDB1; [2],20 ± 1 nM
same,EC50,"CDK12–cyclin K and DDB1; sheet MOESM7, read-out: log TR-FRET EC50 (converted)",19.8 nM
same,EC50,CDK12–cyclin K and DDB1; [3],19.8 nM
same,DC50,[1],51 nM
same,EC50,HEK293T cells,104 nM
same,Toxicity rescue,HEK293T cells,916%
same,IC50,CDK12–cyclin K,25 nM
same,"Lanthascreen raw signal, sheet CDK12",CDK12–cyclin K; compound 1.02544 nM,0.009355 and 0.008483
same,"Lanthascreen raw signal, sheet CDK12",CDK12–cyclin K; compound 3.15521 nM,0.00952 and 0.009538
same,"Lanthascreen raw signal, sheet CDK12",CDK12–cyclin K; compound 9.46563 nM,0.009122 and 0.008857
same,"Lanthascreen raw signal, sheet CDK12",CDK12–cyclin K; compound 31.5521 nM,0.006579 and 0.007668
same,"Lanthascreen raw signal, sheet CDK12",CDK12–cyclin K; compound 99.3891 nM,0.005593 and 0.007192
same,"Lanthascreen raw signal, sheet CDK12",CDK12–cyclin K; compound 315.521 nM,0.006881 and 0.006508
same,"Lanthascreen raw signal, sheet CDK12",CDK12–cyclin K; compound 3155.21 nM,0.007229 and 0.005774
same,"Lanthascreen raw signal, sheet CDK12",CDK12–cyclin K; compound 10002 nM,0.005716 and 0.005184
same,IC50,CDK9–cyclin T,2580 nM
same,"Lanthascreen TR-FRET signal (raw ratio), sheet CDK9",CDK9–cyclin T; compound 1.02544 nM,0.01642 and 0.01407
same,"Lanthascreen TR-FRET signal (raw ratio), sheet CDK9",CDK9–cyclin T; compound 3.15521 nM,0.01297 and 0.01448
same,"Lanthascreen TR-FRET signal (raw ratio), sheet CDK9",CDK9–cyclin T; compound 9.46563 nM,0.01462 and 0.01504
same,"Lanthascreen TR-FRET signal (raw ratio), sheet CDK9",CDK9–cyclin T; compound 31.5521 nM,0.01422 and 0.01715
same,"Lanthascreen TR-FRET signal (raw ratio), sheet CDK9",CDK9–cyclin T; compound 99.3891 nM,0.0151 and 0.01375
same,"Lanthascreen TR-FRET signal (raw ratio), sheet CDK9",CDK9–cyclin T; compound 315.521 nM,0.01436 and 0.01406
same,"Lanthascreen TR-FRET signal (raw ratio), sheet CDK9",CDK9–cyclin T; compound 3155.21 nM,0.01124 and 0.01046
same,"Lanthascreen TR-FRET signal (raw ratio), sheet CDK9",CDK9–cyclin T; compound 10002 nM,0.00772 and 0.01002
same,"Lanthascreen signal, sheet CDK2",CDK2–cyclin A; Compound 1.02544 nM,0.01044 and 0.01012
same,"Lanthascreen signal, sheet CDK2",CDK2–cyclin A; Compound 3.15521 nM,0.0108 and 0.009644
same,"Lanthascreen signal, sheet CDK2",CDK2–cyclin A; Compound 9.46563 nM,0.01089 and 0.009432
same,"Lanthascreen signal, sheet CDK2",CDK2–cyclin A; Compound 31.5521 nM,0.01098 and 0.01188
same,"Lanthascreen signal, sheet CDK2",CDK2–cyclin A; Compound 99.3891 nM,0.011 and 0.01075
same,"Lanthascreen signal, sheet CDK2",CDK2–cyclin A; Compound 315.521 nM,0.009926 and 0.01051
same,"Lanthascreen signal, sheet CDK2",CDK2–cyclin A; Compound 3155.21 nM,0.01049 and 0.01005
same,"Lanthascreen signal, sheet CDK2",CDK2–cyclin A; Compound 10002 nM,0.009311 and 0.007215
same,IC50,"CDK2–cyclin A; Lanthascreen, average, Extended Data Fig. 8, read-out: CDK2 IC50",> 10000 nM
same,IC50,CDK2–cyclin A; [4],> 10000 nM
